Data from article PMC12486805, “Preclinical evaluation of tridecaptin M: in vitro and in vivo efficacy against colistin-resistant Gram-negative bacterial pathogens and pharmacokinetics” (Antimicrobial Agents and Chemotherapy, 2025).
Values after ≈ are worked out from the molar mass of the structure shown. Read-outs that look alike come from different tables or passages of the source. Where a SMILES comes first, the peptide text is derived from it. [ ]: non-standard residue; d: D form. The star is where a group is joined. d(aIle) = CC[C@H](C)[C@@H](N)C(=O)O; X1 = CC[C@H](C)CCCCC(=O)*; dDab = NCC[C@@H](N)C(=O)O; Dab = NCC[C@H](N)C(=O)O

What was measured:
in vitro [1] = conditions: mouse, plasma, % Binding to Plasma Protein
Description: (§2) Plasma protein binding was assessed using the rapid equilibrium dialysis (RED) method, utilizing RED insert devices with a dialysis membrane featuring an 8,000 Dalton molecular weight cutoff for proteins. The test/control items in human, rat, and mouse plasma were prepared at a test concentration of 10 µM using 10 mM DMSO stocks, and the samples were added to the plasma chamber of the RED insert. The device was sealed with tape and incubated in a thermomixer at 37°C with shaking at 300 rpm for 4 h. Following incubation, a 50 µL aliquot of plasma and buffer was collected from each insert and diluted with an equal volume of the opposite matrix to mitigate matrix effects. The samples were quantified using LC-MS/MS analysis and were tested in duplicates.

[2] = tested on: K. pneumoniae ATCC 700603; conditions: ATCC 700603, 48 h
Description: LB, TSB, TSB + 1% Glucose, M63, and the M63 media were selected for biofilm experiments ([20], [30], [31]). With some modifications from previous methods, employing CV staining, K. pneumoniae cells were grown in M63 salt media at 37°C, 200 rpm shaking conditions overnight. […] Following incubation, the media and planktonic cells were gently removed, and the wells with adhered biofilm were washed three times with 0.9% saline. […] The biofilm inhibition was calculated as the percentage of biofilm remaining after treatment using the formula:
Biofilms remaining (%)=OD595 (sample)/OD595 (control)×100%

in vitro [3] = conditions: human, plasma
Description: as §2

E. coli = format: cell-based, Escherichia coli
Description: The MIC for all isolates was determined using the broth microdilution method. This involved preparing CA-MHB medium and serially diluting antibiotic solutions by a factor of two. The test organism was adjusted to a concentration of ≈5 × 10^5 CFU/mL. In a sterile 96-well microtiter plate, 100 µL of CA-MHB, along with 100 µL of each antibiotic, was added, and serial dilutions were made. A 100 µL suspension of the organism was added to each well and mixed, resulting in a total reaction volume of 200 µL per well. The plate was then incubated at 37°C for 16–18 h. The MIC was identified as the lowest concentration of antibiotic that prevented any visible growth of the organism ([16]).

in vivo = conditions: male, Sprague-Dawley, rat, plasma, 5 mg/kg; for Cmax / half-life: 5 mg/kg b.w.
Description: The samples were then centrifuged at 4,000 rpm for 10 min at 4°C to separate plasma, which was stored at −80°C until analysis.

[4] = rat liver microsomes
Description: (§3) For without cofactors, 20 µL of PBS was added instead of pre-incubated cofactors. […] At each specified time, a 100 µL sample was taken, processed through a sample extraction procedure, and submitted for LC-MS/MS analysis ([35]). Half-life (t1/2) of test/control items was determined using the following equation
(§4) where, elimination rate constant (k) = −(slope of linear regression curve).

in vitro [5] = conditions: human, microsomes, pH 7.4
Description: as §3, §4

in vitro [6] = conditions: rat, microsomes
Description: as §3, §4

CYP1A2 = molecular target: T1, CYP1A2 (Homo sapiens, UniProt P05177); assay: biochemical; format: biochemical
T1 sequence (P05177 1-516): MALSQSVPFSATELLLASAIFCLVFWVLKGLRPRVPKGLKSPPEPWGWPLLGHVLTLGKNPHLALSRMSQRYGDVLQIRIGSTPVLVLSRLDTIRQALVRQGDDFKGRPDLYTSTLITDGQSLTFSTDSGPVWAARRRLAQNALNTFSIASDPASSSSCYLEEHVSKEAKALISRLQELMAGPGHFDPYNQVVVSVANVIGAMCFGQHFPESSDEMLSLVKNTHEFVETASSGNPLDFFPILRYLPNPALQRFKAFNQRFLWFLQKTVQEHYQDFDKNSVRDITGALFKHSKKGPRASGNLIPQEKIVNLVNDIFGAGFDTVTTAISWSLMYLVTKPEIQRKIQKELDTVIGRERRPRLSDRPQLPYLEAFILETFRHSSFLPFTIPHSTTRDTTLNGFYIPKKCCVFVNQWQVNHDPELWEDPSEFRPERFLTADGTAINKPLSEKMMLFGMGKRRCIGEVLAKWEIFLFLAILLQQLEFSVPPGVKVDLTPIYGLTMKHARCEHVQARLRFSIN
Description: (§1) The CYP inhibition assay was performed for test/control inhibitor items in duplicates using a 96-well fluorescence plate. An example of the preparation of CYP inhibition is given below in Table 8.
The plate with CYP master premix with test/control was incubated to allow the test/control samples to interact with CYP enzyme for 10 ± 1 min at 25°C under shaking conditions (400 rpm) using Thermomixer. The assay was initiated by adding 10 µL of a substrate and NADP^+ mixture to all wells, including a vehicle control and an assay blank. […] After incubation, the reaction was quenched by adding 50 µL of stop reagent (0.5 M Tris base) to each well.

in vitro [7] = conditions: rat, plasma, % Binding to Plasma Protein
Description: as §2

CYP2C9 = CYP2C9 (Homo sapiens, UniProt P11712); assay: CYP inhibition assay, recombinant isoform, fluorescence; format: biochemical
Chain of CYP2C9 (P11712 whole entry, canonical isoform): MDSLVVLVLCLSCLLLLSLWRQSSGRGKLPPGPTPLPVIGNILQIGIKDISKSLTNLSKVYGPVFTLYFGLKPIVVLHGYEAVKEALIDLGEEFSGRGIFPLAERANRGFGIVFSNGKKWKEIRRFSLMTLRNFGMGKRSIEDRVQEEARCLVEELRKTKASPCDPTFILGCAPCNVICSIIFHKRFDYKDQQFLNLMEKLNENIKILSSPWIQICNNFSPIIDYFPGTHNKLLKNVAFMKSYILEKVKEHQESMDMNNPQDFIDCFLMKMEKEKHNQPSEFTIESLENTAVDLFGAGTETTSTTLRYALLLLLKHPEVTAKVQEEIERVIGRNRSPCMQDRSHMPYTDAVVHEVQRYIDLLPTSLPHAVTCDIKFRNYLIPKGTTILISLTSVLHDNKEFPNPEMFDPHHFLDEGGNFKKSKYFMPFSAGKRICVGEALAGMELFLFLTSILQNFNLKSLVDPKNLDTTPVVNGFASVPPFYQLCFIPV
Description: as §1
The plate with CYP master premix with test/control was incubated to allow the test/control samples to interact with CYP enzyme for 10 ± 1 min at 25°C under shaking conditions (400 rpm) using Thermomixer. The assay was initiated by adding 10 µL of a substrate and NADP^+ mixture to all wells, including a vehicle control and an assay blank. The plate was then incubated at 25°C for 25 min with shaking at 400 rpm using a thermomixer. After incubation, the reaction was quenched by adding 50 µL of stop reagent (0.5 M Tris base) to each well. Fluorescence was measured using a microplate reader at excitation/emission wavelengths of 415/460 nm, respectively ([37]).

CC[C@H](C)CCCCC(=O)NCC(=O)N[C@H](CCN)C(=O)NCC(=O)N[C@H](CO)C(=O)N[C@H](Cc1c[nH]c2ccccc12)C(=O)N[C@@H](CO)C(=O)N[C@@H](CCN)C(=O)N[C@H](CCN)C(=O)N[C@H](C(=O)N[C@@H](CCC(=O)O)C(=O)N[C@H](C(=O)N[C@@H](C(=O)N[C@@H](CO)C(=O)O)[C@@H](C)CC)[C@@H](C)CC)[C@@H](C)CC [Tridecaptin M, tridecaptin M] (X1-G[dDab]G[dS][dW]S[Dab][dDab]IEI[d(aIle)]S-OH)
fraction unbound at 4 h, 10 µM (in vitro [1]): 0.5
% Biofilm remaining (biofilm inhibition) [2]; 1: 29.6%
% Biofilm remaining (biofilm inhibition) [2]; 2: 7.0%
% Biofilm remaining (biofilm inhibition) [2]; 5: 0.5%
fraction unbound at 4 h, 10 µM (in vitro [3]): 0.227
MIC (E. coli): 4 µg/mL (≈ 2.69 µM)
MIC50 (E. coli): 4 µg/mL (≈ 2.69 µM)
MIC range (E. coli): 1 to 8 µg/mL
MIC values (E. coli): 2 to 8 µg/mL
AUC(0-t) (in vivo; iv): 94600 ± 45000 ng·h/mL
MRT last (in vivo; iv): 2.69 ± 1.02 h
Vd (in vivo; iv): 0.16 ± 0.04 L/kg
clearance (in vivo; iv): 1 ± 0.33 mL/min/kg
Cmax (in vivo; iv): 38500 ng/mL
half-life (in vivo; iv, T1/2, intravenous): 3.65 ± 0.56 h
AUC(0-t) (in vivo; sc): 14000 ± 2090 ng·h/mL
MRT last (in vivo; sc): 8.81 ± 2.1 h
Cmax (in vivo; sc, subcutaneous): 9150 ± 1700 ng/mL
half-life (in vivo; sc, T1/2, subcutaneous): 8.81 h
CL [4]: <11.55 µL/min/mg
half-life (in vitro [5]): 1.31 h
microsomal CLint (in vitro [5]): 17.6 µL/min/mg
remaining at 0.25 h (in vitro [5]): 58%
remaining at 0.5 h (in vitro [5]): 50.2%
remaining at 1 h (in vitro [5]): 53.7%
remaining at 2 h (in vitro [5]): 48.4%
half-life (in vitro [6]; pH 7.4): > 2 h
remaining at 0.25 h (in vitro [6]; pH 7.4): 86.4%
remaining at 0.5 h (in vitro [6]; pH 7.4): 76.5%
remaining at 1 h (in vitro [6]; pH 7.4): 70.1%
remaining at 2 h (in vitro [6]; pH 7.4): 58.8%
microsomal CLint (in vitro [6]; pH 7.4, CL, rat liver microsomes): < 11 µL/min/mg
IC50 (CYP1A2): > 30 µM
inhibition at 25 min, 0.01 µM (CYP1A2; human, % inhibition CYP 1A2): < 0%
inhibition at 25 min, 0.03 µM (CYP1A2; human, % inhibition CYP 1A2): < 0%
inhibition at 25 min, 0.1 µM (CYP1A2; human, % inhibition CYP 1A2): < 0%
inhibition at 25 min, 0.3 µM (CYP1A2; human, % inhibition CYP 1A2): < 0%
inhibition at 25 min, 1 µM (CYP1A2; human, % inhibition CYP 1A2): < 0%
inhibition at 25 min, 3 µM (CYP1A2; human, % inhibition CYP 1A2): < 0%
inhibition at 25 min, 10 µM (CYP1A2; human, % inhibition CYP 1A2): < 0%
inhibition at 25 min, 30 µM (CYP1A2; human, % inhibition CYP 1A2): ≤ 0%
fraction unbound at 4 h, 10 µM (in vitro [7]): 0.465
IC50 (CYP2C9): > 30 µM
inhibition at 25 min, 0.01 µM (CYP2C9; human): < 0%
inhibition at 25 min, 0.03 µM (CYP2C9; human): 0.93%
inhibition at 25 min, 0.1 µM (CYP2C9; human): < 0%
inhibition at 25 min, 0.3 µM (CYP2C9; human): < 0%
inhibition at 25 min, 1 µM (CYP2C9; human): 0.05%
inhibition at 25 min, 3 µM (CYP2C9; human): < 0%
inhibition at 25 min, 10 µM (CYP2C9; human): 0.82%
inhibition at 25 min, 30 µM (CYP2C9; human): 25.6%
